# Measurements reported in patent publication US8399493B2, “Pyridinone derivatives and their use as positive allosteric modulators of mGluR2-receptors” (Janssen Pharmaceuticals, Inc., priority 2004, dated 2013).
# How the values were obtained:
# [1] = biological target: T1, native rat mGluR2 (Rattus norvegicus, UniProt P31421); test: [35S]GTPγS binding assay using cortical rat brain membranes; format: biochemical; settings: for Activity: left-ward shift of agonist mGluR2 concentration-response curve: selective mGluR2 agonist such as LY379268, rat cortical membranes, 3 or 10 μM of positive allosteric modulator
# T1 construct: from tissue; host or cells: rat brain cortex membranes (Sprague-Dawley rats, Charles River Laboratories)
# Source text: The [^35S]GTPγS binding is a functional membrane-based assay used to study G-protein coupled receptor (GPCR) function. This method is using a binding assay to assess the initial step in receptor-mediated G protein activation in membranes prepared from cells expressing recombinant GPCR or using membranes from discrete area of the rat brain. In brief, the assay is measuring the activation of G proteins by catalyzing the exchange of guanosine 5′-diphosphate (GDP) by guanosine 5′-triphosphate (GTP) at the α subunit. The GTP-bounded G proteins dissociate into two subunits, Gα-GTP and Gβγ, which in turn regulate intracellular enzymes and ion channels. GTP is rapidly hydrolysed by the Gα-subunit (GTPases) and the G protein is deactivated and ready for new GTP exchange cycle (Harper (1998) Curr Protoc Pharmacol 2.6.1-10, John Wiley & Sons, Inc.). [^35S]GTPγS, a non-hydrolyzed analogue of GTP, is used for this purpose.
# This method is widely used to study receptor activation of G protein in membranes prepared from rat brain tissue, including mGluR2 receptors (Schaffhauser et al 2003, Pinkerton et al, 2004). mGluR2 receptors are expressed in the rat brain cortex (Mutel et al (1998) J. Neurochem. 71:2558-64; Schaffhauser et al (1998) Mol. Pharmacol. 53:228-33) and are coupled to Gαi-protein, a preferential coupling for this method.
# [^35S]GTPγS binding assay using cortical rat brain membranes preparation was used and adapted from Schaffhauser et al ((2003) Mol. Pharmacol. 4:798-810) for the detection of the positive allosteric modulator properties of the compounds of this invention on native rat mGluR2. In order to eliminate the possible interference with group III Gαi-protein coupled mGluRs (mGluR4, mGluR7, mGluR8; mGluR6 is not expressed in the cortex (Laurie et al (1997) Neuropharmacol. 36:145-52)), the potentiation of the response to a selective mGluR2 agonist, such as DCG-IV (Cartmell et al. (1998) Br. J. Pharmacol. 123(3):497-504) or LY379268 (Monn et al. (1999) J. Med. Chem 42:1027-40), by compounds described in the present invention was performed.
# Cortices were dissected out from brains of 200-300 g Sprague-Dawley rats (Charles River Laboratories, L'Arbresle, France). Tissues were homogenized in 6 volumes (vol/wt) of 10% sucrose at 4° C. using a glass-teflon homogenizer. The homogenate was centrifuged at 1250 g for 10 min, and the supernatant was centrifuged at 40,000 g for 20 min (4° C.). The pellet was resuspended in 25 ml water using a Polytron disrupter (Kinematica AG, Luzern, Switzerland) and centrifuged for 10 min at 3000 g. (4° C.). The supernatant was centrifuged at 40,000 g for 20 min (4° C.). The supernatant was discarded and the pellet washed twice by resuspension in 10 volumes 5 mM HEPES-KOH, pH 7.4. The homogenate was frozen and thawed twice and centrifuged at 40,000 g for 20 min. The final pellet was resuspended in 5 mM HEPES-KOH, pH 7.4 and stored at −80° C. before its use. Protein concentration was determined by the Bradford method (Bio-Rad protein assay, Reinach, Switzerland) with bovine serum albumin as standard.
# Measurement of mGluR2 positive allosteric modulators properties in rat cortical membranes was performed as follows: rat cortical membrane (1.5 μg) were incubated in 96-well microplates for 15 min at 30° C. in assay buffer (50 mM HEPES pH 7.4, 100 mM NaCl, 5 mM MgCl2, 10 μM GDP, 10 μg/ml saponin, EGTA 0.2 mM) with increasing concentrations of positive allosteric modulator (from 1 nM to 10 μM) and a minimal concentration of DCG-IV or LY379268, a selective mGluR2 agonist, that has been determined in previous experiments and that corresponds to the EC20, a concentration that gives 20% of the maximal response of the agonist, and is in accordance to published data (Pin et al. (1999) Eur. J. Pharmacol. 375:277-294). […]
# [2] = test system: Male C57BL6/j mice; test: PCP-induced locomotor activity in mice (phencyclidine model of schizophrenia); format: in vivo; settings: 200 mg/kg i.p., PCP 5 mg/kg s.c., distance traveled over 60 minutes, FIG. 2
# Source text: PCP-induced increases in locomotor ambulation are a widely accepted animal model of schizophrenia. This model is based on the evidence that phencyclidine induces a schizophrenia-like syndrome in humans including increased motor behaviors, disruption of cognition and impairment of working memory (Steinpreis R E (1996) Behav Br Res. 74:45-55; Abi-Saab et al. (1998) Pharmacopsychiatry, 31:104-109). Further, it has also been shown that antipsychotic drugs that are effective in the treatment of schizophrenia reduce the locomotor activating effect of PCP (Gleason & Shannon (1997) Psychopharmacology, 129:79-84). […]
# (§1) The effects of compounds on PCP- or amphetamine-induced locomotor activation in mice were tested. […] Locomotor activity (ambulations) was monitored by a videotracking system (VideoTrack, Viewpoint, Champagne au Mont d'Or, France) that recorded the ambulatory movements of mice. […] On test days, test compounds (200 mg/kg i.p. (intraperitoneal)) or vehicle were administered immediately before the PCP (5 mg/kg s.c. (sub-cutaneous), amphetamine (3.0 mg/kg s.c.) or saline injection. Mice were placed into the locomotor boxes immediately after the PCP, amphetamine or saline vehicle injection and their locomotor activity, defined as the distance traveled in centimeters (cm), was measured for 60 minutes. […]
# [3] = test system: Male C57BL6/j mice; test: Amphetamine-induced locomotor activity in mice (amphetamine model of schizophrenia); format: in vivo; settings: 200 mg/kg i.p., amphetamine 3.0 mg/kg s.c., distance traveled over 60 minutes, FIG. 3
# Source text: Amphetamine-induced increases in locomotor ambulation are well known and are widely used as a model of the positive symptoms of schizophrenia. This model is based on evidence that amphetamine increases motor behaviors and can induce a psychotic state in humans (Yui et al. (2000) Ann NY Acad Sci 914:1-12). Further, it is well known that amphetamine-induced increases in locomotor activity are blocked by antipsychotics drugs that are effective in the treatment of schizophrenia (Arnt (1995) Eur J Pharmacol 283:55-62). […]
# as §1
# Statistical analyses were performed using GraphPad PRISM statistical software (GraphPad, San Diego, Calif., USA). Data were analyzed using unpaired t-tests. […]
# T1 sequence (P31421 19-872): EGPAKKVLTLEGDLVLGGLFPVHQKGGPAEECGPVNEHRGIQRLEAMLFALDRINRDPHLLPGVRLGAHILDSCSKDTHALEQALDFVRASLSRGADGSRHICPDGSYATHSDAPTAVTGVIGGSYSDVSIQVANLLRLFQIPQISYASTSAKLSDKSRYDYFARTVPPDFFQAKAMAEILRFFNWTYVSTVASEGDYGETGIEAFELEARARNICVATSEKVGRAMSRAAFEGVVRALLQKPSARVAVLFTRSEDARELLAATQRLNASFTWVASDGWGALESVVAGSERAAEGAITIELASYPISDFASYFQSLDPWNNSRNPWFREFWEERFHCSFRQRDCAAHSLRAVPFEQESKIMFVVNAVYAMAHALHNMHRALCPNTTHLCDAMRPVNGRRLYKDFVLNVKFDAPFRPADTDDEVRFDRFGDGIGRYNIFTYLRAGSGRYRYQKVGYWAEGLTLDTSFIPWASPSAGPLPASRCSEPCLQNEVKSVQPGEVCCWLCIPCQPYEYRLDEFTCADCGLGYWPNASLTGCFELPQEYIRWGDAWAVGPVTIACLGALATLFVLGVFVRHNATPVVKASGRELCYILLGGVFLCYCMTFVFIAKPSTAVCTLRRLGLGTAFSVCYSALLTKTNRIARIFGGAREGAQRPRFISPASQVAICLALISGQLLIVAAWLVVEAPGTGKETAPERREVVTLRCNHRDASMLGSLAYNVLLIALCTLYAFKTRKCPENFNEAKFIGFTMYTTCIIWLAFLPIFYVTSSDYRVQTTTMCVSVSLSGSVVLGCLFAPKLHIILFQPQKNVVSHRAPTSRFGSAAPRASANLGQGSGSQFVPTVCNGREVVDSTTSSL
Compound,"ability to increase the [GTPγ35S] binding induced by DCG-IV ([1]; 10 μM compound with 50 nM DCG-IV, compared to agonist alone, FIG. 1)","agonistic activity in the absence of DCG-IV ([1]; 10 μM compound without 50 nM DCG-IV, compared to buffer value, FIG. 1)",effect on the increase in locomotor activity induced by PCP [2],effect on the increase in locomotor activity induced by amphetamine [3],melting point [°C],Activity: left-ward shift of agonist mGluR2 concentration-response curve [1]
COc1ccc(-c2ccc(=O)n(Cc3ccc(Cl)cc3F)c2)cc1 [4-16],significantly potentiated,no statistically significant agonistic activity,significantly attenuated,significantly attenuated,88,–
"O=c1c2ccccc2ccn1Cc1ccc(F)cc1 [13-01, 2-(4-Fluorobenzyl)isoquinolin-1(2H)-one]",–,–,–,–,107,++ (left-ward shift of agonist mGluR2 concentration-response curve [2- to 3.5-fold])
"CCCn1ccc2c(NCCc3ccc(O)cc3)cccc2c1=O [13-05, 5-(4-Hydroxyphenethylamino)-2-propylisoquinolin-1(2H)-one]",–,–,–,–,170 to 171,+++ (left-ward shift of agonist mGluR2 concentration-response curve [>3.5])
"O=c1ccc2ccccc2n1Cc1ccc(Cl)cc1 [15-04, 1-(4-Chlorobenzyl)quinolin-2(1H)-one]",–,–,–,–,139,+ (left-ward shift of agonist mGluR2 concentration-response curve [<2])
O=c1ccc(COc2ccccc2)cn1Cc1ccc(C(F)(F)F)nc1 [16-07],–,–,–,–,119 to 121,++ (left-ward shift of agonist mGluR2 concentration-response curve [2- to 3.5-fold])
